The source of these data is PMC8416565 (Oncotarget, 2021).

The test addresses T1, MAP2K7 (Homo sapiens, UniProt O14733).
T1 construct: purified human MAP2K7 (Origene)
T1 sequence (O14733 2-419): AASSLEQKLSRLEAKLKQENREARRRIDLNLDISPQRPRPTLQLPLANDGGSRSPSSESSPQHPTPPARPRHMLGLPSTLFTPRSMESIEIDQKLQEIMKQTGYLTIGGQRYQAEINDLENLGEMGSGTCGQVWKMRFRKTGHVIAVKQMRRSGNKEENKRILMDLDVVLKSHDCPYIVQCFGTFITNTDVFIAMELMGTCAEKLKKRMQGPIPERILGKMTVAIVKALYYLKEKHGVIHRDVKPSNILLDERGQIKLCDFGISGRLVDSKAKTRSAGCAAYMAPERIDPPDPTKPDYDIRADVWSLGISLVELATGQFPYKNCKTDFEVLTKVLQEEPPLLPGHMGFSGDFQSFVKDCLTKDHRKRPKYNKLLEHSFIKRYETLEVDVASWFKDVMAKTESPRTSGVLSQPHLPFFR
The test can be described thus: in vitro kinase assay (Kinase-Glo Plus / ADP-Glo), dead JNK2 substrate, 30-min preincubation. The test is classed as biochemical.

In general, IC50 refers to the concentration that inhibits the measured activity by half.

Molecules are shown by their SMILES.

Turning to `COc1cc(O)c2c(c1)/C=C/C[C@H](O)[C@H](O)C(=O)/C=C\C[C@H](C)OC2=O` [5Z7O, 5Z-7-oxozeaenol], the IC50 was 1.2 µM.
